{
  "source": "patent US10251852B2",
  "about": "“Composition and methods for treatment of lung disorders characterized by cholesterol dysregulation” (priority 2016, dated 2019)",
  "key": {"Csf2−/− BMD macrophages": {"test_system": "Csf2−/− BMD macrophages", "assay": "GM-CSF plasticity studies (withdrawal, multi-day stimulation, dose response) with PAP-S challenge", "format": "cell-based, mouse", "conditions": "for reduction in exposure-related cholesterol ester accumulation: addition of GM-CSF (10 ng/ml) to macrophages cultured without it; for increase in exposure-related cholesterol ester accumulation: withdrawal of GM-CSF", "method": "(§1) In vitro surfactant challenge assay. BMD macrophages or peritoneal macrophages were seeded at 4×10^5 cells per well of a 12 well tissue culture plate and allowed to adhere with fresh media and cytokines overnight. Cells were then challenged for 24 hrs with pulmonary surfactant isolated from a hereditary PAP patient (PAP-S). After the challenge cells were gently washed with PBS to remove exogenous PAP-S and cellular lipids were then extracted and analyzed by the amplex red cholesterol assay.\nGM-CSF withdrawal. Csf2^−/− BMD macrophages were differentiated and maintained in media containing M-CSF and GM-CSF. After 7 days of differentiation cells were split into 12well tissue culture plates and allowed to adhere overnight in GM-CSF containing media. The following day the media was changed to M-CSF only and cells were challenged with PAP-S for 24hrs immediately or 24, 48, and 72 hours after GM-CSF withdrawal. Cellular lipids were extracted, normalized to total protein, and analyzed. Csf2^−/− BMD macrophages were used to ensure elimination of any potential autologous GM-CSF expression-related stimulation.\nMulti-Day GM-CSF stimulation. Csf2^−/− BMD macrophages were generated in media containing M-CSF. On the 7th day cells were stimulated for 0, 24, 48, or 72 hrs with 10 ng/ml of GM-CSF before 24 hr surfactant challenge with PAP-S. Cellular lipids were extracted, normalized to total protein, and analyzed.\nGM-CSF dose response. Csf2^−/− BMD macrophages were generated in media containing M-CSF. On the 7th day cells were stimulated by a dose response of GM-CSF (0, 0.1,1,10, and 100 ng/ml) for 24 hrs before surfactant challenge with PAP-S. Cellular lipids were extracted, normalized to total protein, and analyzed."}, "[1]": {"test_system": "BMD macrophages from PAP mice (Csf2−/−)", "assay": "In vitro surfactant challenge assay after PPARγ/LXR stimulation (esterified cholesterol accumulation)", "format": "cell-based, mouse", "method": "as §1\nIn vitro mouse PPARγ & LXR stimulation Studies. BMD macrophages were prepared as previously described in the presence of M-CSF (10 ng/ml). On the 7th day macrophages were stimulated for 24 hrs with M-CSF (10 ng/ml), GM-CSF (10 ng/ml), Pioglitazone (10 μm) or T0901317 (1 μm from Tocris). Macrophages were then used for an in vitro surfactant challenge assay or gene expression analysis by qRT-PCR as described above."}, "[2]": {"test_system": "alveolar macrophages from PAP patients", "assay": "Ex vivo human PPARγ & LXR stimulation, mRNA by qRT-PCR", "format": "cell-based", "method": "Bronchoalveolar lavage and alveolar macrophage collection in human participants. This study was conducted with the approval of the Cincinnati Children's Hospital Medical Center institutional review board and all participants or their legal guardians gave written informed consent. Human BAL fluid and alveolar macrophages were obtained from BAL using flexible bronchoscopy or from discarded material of PAP patients undergoing therapeutic whole lung lavage. After the fluid was centrifuged at 283 g for 10 minutes, the cellular pellet was re-suspended in the culture medium. Human alveolar macrophages were isolated by adherence to tissue culture plastic. Extracellular debris was removed by gentle washing with PBS.\n(§2) RNA isolation and gene expression analysis. Total RNA was isolated using Trizol (Life Technologies) and was converted to cDNA using the Invitrogen Superscript III first strand synthesis kit (Life Technologies) according to the manufacturer's protocol. Standard quantitative RT-PCR (qRT-PCR) was performed as previously described 10 on an Applied Biosystems 7300 Real-Time PCR System (Life Technologies) to measure transcript abundance using TaqMan® oligonucleotide primer sets (all from Life Technologies). Expression of target genes was normalized to the expression of 18s RNA.\nEx vivo human PPARγ & LXR stimulation studies. After purifying alveolar macrophages, fresh media was added to the adherent alveolar macrophages containing human M-CSF (R&D) (25ng/ml) only or M-CSF plus Pioglitazone (Sigma) (10 μM) or T0901317 (Tocris) (1 μM) for 24 hrs. qRT-PCR was performed as described above."}, "[3]": {"test_system": "BMD macrophages from PAP mice (Csf2−/−)", "assay": "In vitro mouse PPARγ & LXR stimulation, gene expression by qRT-PCR", "format": "cell-based", "conditions": "T0901317 1 μm", "method": "Tissue macrophage differentiation and culture. All cells were maintained in the culture medium of Dulbecco's modified eagle's medium (DMEM) (Life Technologies) plus 10% FBS, 50 U ml-1 penicillin, and 50 μg ml-1 streptomycin. Bone marrow cells were obtained from 6-8-week-old mice by flushing the tibias and femurs with the culture media described above.\nMononuclear cells were isolated by centrifugation over a Ficoll-Paque (GE Healthcare Life Sciences) gradient at room temperature for 30 minutes. The buffy coat was washed in PBS and the cellular pellet re-suspended in the culture medium with M-CSF (R&D Systems) (5 ng/ml) plus or minus GM-CSF (R&D Systems) as dictated per experimental requirements. Cells were cultured in a 10 cm dish overnight at 37° C. and the next day non-adherent cells were recovered and transferred to a new dish and cultured under the same conditions for an additional 24 hrs. At this stage non-adherent cells were discarded and adherent cells cultured for an additional five days to allow differentiation of bone marrow derived (BMD) macrophages. Peritoneal macrophages were isolated from the peritoneal without chemical solicitation by washing with 8 ml of PBS plus 0.5 mM EDTA. WT peritoneal macrophages were cultured in vitro in culture medium with M-CSF (5 ng/ml) and GM-CSF […], and Csf2^−/− peritoneal macrophages were cultured in culture medium with M-CSF alone. […]"}, "Csf2rb−/− mice [4]": {"test_system": "Csf2rb−/− mice", "assay": "In vivo LXR stimulation study (oral T0901317 in PAP mice)", "design": "species or system mouse", "conditions": "oral gavage 10 mg/kg/day, 7 days", "method": "Bronchoalveolar lavage and alveolar macrophage collection in mice.\nRNA isolation and gene expression analysis.\nIn vivo LXR Stimulation Studies. Mice were administered T0901317 by oral gavage once daily for 7 days at a dose of 10 mg/kg/BW/Day using propylene glycol and tween 80 as a vehicle. On the 7th day alveolar macrophages were collected by bronchoalveolar lavage. Following brief adherence to tissue culture plastic to remove BAL debris, alveolar macrophages were then used for RNA isolation and gene expression analysis by qRT-PCR as described above"}, "Csf2rb−/− mice [5]": {"test_system": "Csf2rb−/− mice", "assay": "In vivo PPARγ stimulation study (oral pioglitazone in PAP mice)", "source_text": "Bronchoalveolar lavage and alveolar macrophage collection in mice. GM-CSF (CSF2) knockout (Csf2^−/−) mice5 and Csf2rb gene-deficient (Csf2rb^−/−)14 were reported previously (referred to mouse PAP). C57B1/6 mice (referred to as wild type or WT mice) were purchased from Charles River. All mice were bred, housed, and studied in the Cincinnati Children's Research Foundation Vivarium using protocols approved by the Institutional Animal Care and Use Committee. Epithelial lining fluid and non-adherent cells were collected from indicated mice by bronchoalveolar lavage (BAL) using five lml aliquots of PBS plus 0.5 mM EDTA4. The 1 ml aliquots were pooled and the recovered volumes recorded. The supernatant was removed and the cellular pellets were re-suspended in the culture media for isolation of alveolar macrophages by adherence to tissue culture plastic.\nCholesterol levels. Total and free cholesterol levels were measured by the amplex red cholesterol assay (Life Technologies) per the manufacturer's protocol. Esterified cholesterol was then calculated by subtracting free cholesterol from the total value.\nTurbidity. The turbidity of the fluid was measured as previously described^4,55 Briefly, 250 uls of the BAL were diluted into 750 uls of PBS and the optical density measured at a wavelength of 600 nm and multiplied by the dilution factor.\nas §2\nIn vivo PPARγ stimulation studies. Pioglitazone was incorporated into standard rodent chow at a dose expected to deliver 20 mg/kg BW/Day. BAL turbidity and alveolar macrophage gene expressions were measured as described above. GM-CSF levels and total cholesterol levels in the BAL were measured in the supernatant of fluid after centrifuge at 283 g for 10 minutes at 4° C. by enzyme-linked immunosorbent assay (ELISA) (R&D systems) and Amplex Red Cholesterol assay respectively as described above."}, "[6]": {"test_system": "patients with insulin resistance", "conditions": "literature ref. 53; cited from earlier work"}, "[7]": {"conditions": "oral in food, 20 mg/kg/day, six weeks, vs untreated age-matched controls (FIG. 5F-5G)"}, "[8]": {"conditions": "pioglitazone 10 μM, 24 hrs, compared to untreated controls (FIG. 5A-5B)"}},
  "data": [
    {"compound": "GM-CSF: granulocyte/macrophage-colony stimulating factor (R&D Systems)", "values": [
      {"measurement": "cholesterol clearance capacity of macrophages", "setting": "Csf2−/− BMD macrophages; GM-CSF 0, 0.1, 1, 10, 100 ng/ml for 24 hrs before PAP-S challenge (FIG. 3N)", "value": "increased the cholesterol clearance capacity of macrophages in dose-dependent fashion"},
      {"measurement": "reduction in exposure-related cholesterol ester accumulation", "setting": "Csf2−/− BMD macrophages; by 24 hours (FIG. 3M)", "value": 27, "unit": "%"},
      {"measurement": "reduction in exposure-related cholesterol ester accumulation", "setting": "Csf2−/− BMD macrophages; by 72 hours (FIG. 3M)", "value": 49, "unit": "%"},
      {"measurement": "increase in exposure-related cholesterol ester accumulation", "setting": "Csf2−/− BMD macrophages; by 24 hours (FIG. 3L)", "value": 86, "unit": "%"},
      {"measurement": "increase in exposure-related cholesterol ester accumulation", "setting": "Csf2−/− BMD macrophages; by 72 hours (FIG. 3L)", "value": 309, "unit": "%"}
    ]},
    {"compound": "O=S(=O)(c1ccccc1)N(CC(F)(F)F)c1ccc(C(O)(C(F)(F)F)C(F)(F)F)cc1", "note": "[T0901317, N-(2,2,2-trifluoroethyl)-N-[4-[2,2,2-trifluoro-1-hydroxy-1-(trifluoromethyl)ethyl]phenyl]-benzenesulfonamide]", "values": [
      {"measurement": "cholesterol ester accumulation following exposure to PAP-surfactant", "setting": "[1]; T0901317 1 μm 24 hrs, then PAP-S 24 hrs (FIG. 8E)", "value": "reduced"},
      {"measurement": "ABCG1 mRNA", "setting": "[2]; T0901317 1 μM, 24 hrs (FIG. 8A)", "value": "increase"},
      {"measurement": "ABCA1 mRNA", "setting": "[2]; T0901317 1 μM, 24 hrs (FIG. 8B)", "value": "increase"},
      {"measurement": "Abcg1 mRNA level", "setting": "[3]; 24 hrs (FIG. 8C)", "value": "increased"},
      {"measurement": "Abca1 mRNA level", "setting": "[3]; 24 hrs (FIG. 8D)", "value": "increased"},
      {"measurement": "Abca1 mRNA in alveolar macrophages", "setting": "Csf2rb−/− mice [4]; vs untreated age-matched controls (FIG. 8F)", "value": "significantly increased"},
      {"measurement": "Abcg1 mRNA in alveolar macrophages", "setting": "Csf2rb−/− mice [4]; vs untreated age-matched controls (FIG. 8G)", "value": "significantly increased"}
    ]},
    {"compound": "CCc1ccc(CCOc2ccc(CC3SC(=O)NC3=O)cc2)nc1", "note": "(stereo not shown) [pioglitazone, Pioglitazone]", "values": [
      {"measurement": "cholesterol ester accumulation following exposure to PAP-surfactant", "setting": "[1]; pioglitazone 10 μm 24 hrs, then PAP-S 24 hrs (FIG. 5E)", "value": "reduced"},
      {"measurement": "Abca1 mRNA in alveolar macrophages", "setting": "Csf2rb−/− mice [5]; [7]", "value": "significantly increased"},
      {"measurement": "Abcg1 mRNA in alveolar macrophages", "setting": "Csf2rb−/− mice [5]; [7]", "value": "significantly increased"},
      {"measurement": "BAL turbidity", "setting": "Csf2rb−/− mice [5]; oral in food, 20 mg/kg/day, six weeks, vs untreated age-matched controls (FIG. 5H)", "value": "significantly reduced"},
      {"measurement": "BAL cholesterol level", "setting": "Csf2rb−/− mice [5]; oral in food, 20 mg/kg/day, six weeks, vs untreated age-matched controls (FIG. 5I)", "value": "significantly reduced"},
      {"measurement": "adverse effects", "setting": "Csf2rb−/− mice [5]; oral pioglitazone in Csf2rb−/− mice (not shown)", "value": "no apparent adverse effects"},
      {"measurement": "severity of PAP lung disease", "setting": "Csf2rb−/− mice [5]; pioglitazone therapy of GM-CSF deficient mice (summary statement)", "value": "reduced the severity"},
      {"measurement": "risk of stroke or myocardial infarction", "setting": "[6]", "value": "reduce the risk"},
      {"measurement": "ABCA1 mRNA", "setting": "[2]; [8]", "value": "did not alter"},
      {"measurement": "ABCG1 mRNA", "setting": "[2]; [8]", "value": "markedly increased"}
    ]}
  ]
}
